Seven compounds from ChEMBL document CHEMBL1201862, “PubChem BioAssay data set” (2004) can be followed below.

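Test compounds were applied to cells in 96-well plates for 48 hours at 5 doses. GI50: concentration for 50% inhibition of growth.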 Active and inactive are the calls of the source. Cut-off read from the data, not from the text of the source: active = GI50 up to about 1.1 µM and inactive = higher.

Among the test systems are HCT-116; BT-549; SF-268; DU-145; Hs-578T; TK-10; T47D; MDA-MB-231; UACC-257; CAKI-1; OVCAR-5; CCRF-CEM; RXF 393; SR; SK-OV-3; KM12; RPMI-8226; HCT-15; UO-31; U-251.
Holding throughout (assay): NCI anticancer screen, dose series, 48 h

As for `CCSC1=CC(=O)c2nc3ccccc3c3ccnc1c23`, the GI50 in the assay on HCT-116 was 2.72 µM (inactive); with BT-549, 12.9 µM (inactive); in the assay on SF-268, 2.49 µM (inactive); with DU-145, 10.8 µM (inactive); in the assay on Hs-578T it was 3.14 µM (inactive); with TK-10, 12.1 µM (inactive). The GI50 in the assay with T47D is 11.2 µM (inactive); in the assay with MDA-MB-231, 4.14 µM (inactive); in the assay on UACC-257 it was 1.95 µM (inactive); with CAKI-1 it was 3.82 µM (inactive); with OVCAR-5, 3.85 µM (inactive); in the assay with CCRF-CEM it was 2.44 µM (inactive). Further, the GI50 with RXF 393 was 4.5 µM (inactive); in the assay with SR, 2.7 µM (inactive); in the assay on SK-OV-3, 49 µM (inactive); with KM12, 3.9 µM (inactive); in the assay on RPMI-8226 it was 2.33 µM (inactive); in the assay on HCT-15 it was 2310 nM. In addition, the GI50 in the assay with UO-31 was 5.22 µM (inactive); in the assay with U-251, 3.33 µM (inactive).
Take `COc1cc(C2c3cc4c(cc3OC(N3CCOCC3)C2C)OCO4)cc(OC)c1O` (stereo not given): the GI50 with HCT-116 is 4.13 µM (inactive); in the assay with BT-549, 7.43 µM (inactive); in the assay on SF-268 it was 17.7 µM (inactive); in the assay with DU-145, 29.7 µM (inactive); in the assay on Hs-578T, 3.18 µM (inactive); in the assay with TK-10 it was 18.7 µM (inactive). The GI50 with T47D was 9.04 µM (inactive); in the assay on MDA-MB-231, 10.1 µM (inactive); with UACC-257, 17.8 µM (inactive); with CAKI-1 it was 11.5 µM (inactive); in the assay on OVCAR-5 it was 46.6 µM (inactive); in the assay on CCRF-CEM, 3.14 µM (inactive). Moreover, the GI50 with RXF 393 was 14.7 µM (inactive); in the assay with SR it was 3.82 µM (inactive); in the assay with SK-OV-3, 5.69 µM (inactive); in the assay on KM12, 4.73 µM (inactive); in the assay with RPMI-8226, 8.2 µM (inactive); in the assay on HCT-15, 2870 nM. The GI50 with UO-31 was 14.8 µM (inactive); in the assay on U-251, 7.52 µM (inactive).
With `COc1ccc2c(c1)C1=NCCN(CCN(C)C)c3ccc([N+](=O)[O-])c(c31)N2`, the GI50 with HCT-116 was 0.116 µM (active); in the assay with BT-549, 0.815 µM (active); in the assay on SF-268 it was 0.509 µM (active); with DU-145, 0.48 µM (active); in the assay on Hs-578T, 1.75 µM (inactive); with TK-10, 1.1 µM (active). The GI50 is 0.156 µM (active) in the assay with T47D; 0.196 µM (active) in the assay on MDA-MB-231; 1.38 µM (inactive) in the assay on UACC-257; 0.56 µM (active) in the assay with CAKI-1; 1.59 µM (inactive) in the assay on OVCAR-5; 0.258 µM (active) in the assay with CCRF-CEM. The GI50 in the assay on RXF 393 is 0.757 µM (active); in the assay with SR, 0.404 µM (active); in the assay on SK-OV-3, 0.259 µM (active); in the assay with KM12, 0.374 µM (active); in the assay on RPMI-8226 it was 0.442 µM (active); in the assay on HCT-15, 395 nM. Besides, the values for the GI50 in the assay on UO-31 and in the assay on U-251 were 0.735 µM (active) and 0.649 µM (active), respectively.
For the compound `Cc1cc(S(=O)(=O)NC(=C(C#N)C#N)[n+]2ccc(N(C)C)cc2)c([S-])cc1Cl`, the GI50 in the assay on HCT-116, with BT-549, in the assay on SF-268, in the assay with DU-145, with Hs-578T and in the assay on TK-10 was > 100 µM (inactive) each time. The GI50 with T47D, in the assay with MDA-MB-231, with UACC-257, in the assay with CAKI-1, in the assay on OVCAR-5 and with CCRF-CEM was > 100 µM (inactive) throughout. Moreover, the GI50 is > 100 µM (inactive) in the assay with RXF 393; > 100 µM (inactive) in the assay on SR; > 100 µM (inactive) in the assay with SK-OV-3; > 100 µM (inactive) in the assay with KM12; > 100 µM (inactive) in the assay with RPMI-8226; above 100000 nM in the assay with HCT-15. Also, the GI50 in the assay on UO-31 and in the assay on U-251 was > 100 µM (inactive) throughout.
`CC(C)=CCC[C@](C)(O[C@@H]1O[C@H](CO)[C@@H](O)[C@H](O)[C@H]1O)[C@H]1CC[C@]2(C)[C@@H]1[C@H](O)C[C@@H]1[C@@]3(C)CC[C@@H](O)C(C)(C)[C@@H]3[C@@H](O[C@@H]3O[C@H](CO)[C@@H](O)[C@H](O)[C@H]3O)C[C@]12C.C[C@@H]1O[C@@H](O[C@H]2[C@H](O[C@H]3C[C@]4(C)[C@H](C[C@H](O)[C@@H]5[C@@H]([C@@]6(C)CC[C@H](C(C)(C)O)O6)CC[C@]54C)[C@@]4(C)CC[C@H](O)C(C)(C)[C@H]34)O[C@H](CO)[C@@H](O)[C@@H]2O)[C@H](O)[C@H](O)[C@H]1O`: the GI50 in the assay on HCT-116, in the assay with BT-549, in the assay with SF-268, in the assay with DU-145, in the assay on Hs-578T and in the assay on TK-10 was > 100 µM (inactive) throughout. Moreover, the GI50 in the assay on T47D, in the assay on MDA-MB-231, in the assay on UACC-257, in the assay with CAKI-1, with OVCAR-5 and in the assay with CCRF-CEM was > 100 µM (inactive) each time. For the same compound, the GI50 is > 100 µM (inactive) with RXF 393; > 100 µM (inactive) in the assay on SR; > 100 µM (inactive) with SK-OV-3; > 100 µM (inactive) in the assay with KM12; > 100 µM (inactive) with RPMI-8226; above 100000 nM in the assay with HCT-15. Further, the GI50 in the assay with UO-31 and in the assay on U-251 was > 100 µM (inactive) in each case.
Regarding `COc1ccc(CCNC(=O)Cc2ccccc2CCO)cc1OC`, the GI50 in the assay with HCT-116, with BT-549, in the assay on SF-268, in the assay on DU-145, in the assay on Hs-578T and in the assay on TK-10 was > 100 µM (inactive) in each case. In addition, the GI50 was > 100 µM (inactive) with T47D; 38.8 µM (inactive) in the assay with MDA-MB-231; > 100 µM (inactive) with UACC-257; > 100 µM (inactive) with CAKI-1; > 100 µM (inactive) in the assay with OVCAR-5; > 100 µM (inactive) with CCRF-CEM. In addition, the GI50 in the assay with RXF 393 was > 100 µM (inactive); in the assay on SR, > 100 µM (inactive); with SK-OV-3, > 100 µM (inactive); in the assay with KM12, > 100 µM (inactive); in the assay on RPMI-8226 it was > 100 µM (inactive); in the assay with HCT-15 it was 14900 nM. For the same compound, the GI50 in the assay on UO-31 and in the assay on U-251 was > 100 µM (inactive) each time.
Regarding `O=C(/C=C/c1ccc(O)c(-c2cc(C(=O)/C=C/c3ccc(O)cc3)c(O)cc2O)c1)c1ccc(O)cc1O` [RHUSCHALCONE VI], the GI50 in the assay on HCT-116 was 11.5 µM (inactive); in the assay with BT-549, 15.5 µM (inactive); with SF-268, 17.5 µM (inactive); in the assay with DU-145, 40.5 µM (inactive); in the assay on Hs-578T, 30 µM (inactive); with TK-10, > 50 µM (inactive). For the same compound, the GI50 is 33.3 µM (inactive) in the assay on T47D; 29.7 µM (inactive) in the assay on MDA-MB-231; > 50 µM (inactive) with UACC-257; > 50 µM (inactive) in the assay on CAKI-1; > 50 µM (inactive) with OVCAR-5; 10.1 µM (inactive) in the assay on CCRF-CEM. For the same compound, the GI50 in the assay on RXF 393 was 17.2 µM (inactive); with SR it was 11.4 µM (inactive); in the assay with SK-OV-3, 16.1 µM (inactive); in the assay with KM12 it was 13.3 µM (inactive); in the assay with RPMI-8226, 18.6 µM (inactive); in the assay with HCT-15, above 50000 nM. Also, the GI50 is > 50 µM (inactive) in the assay with UO-31 and 15.8 µM (inactive) with U-251.
